Data: paper PMC5011342, “A high throughput drug screening assay to identify compounds that promote oligodendrocyte differentiation using acutely dissociated and purified oligodendrocyte precursor cells” (BMC Research Notes, 2016)
Like-named read-outs stand apart in the source and are kept apart here.

Legend:
[1] = tested on: acutely dissociated and purified rat OPCs; assay: Acute OL differentiation assay (MBP expression/cell, immunofluorescent image quantification); assay type: cell-based; conditions: Rattus norvegicus, sheet "All OLga data"
In short: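 This acute differentiation assay used purified rat OPCs from postnatal day 6–7 pups, seeded into PDL/laminin-coated 96-well plates in differentiation medium lacking PDGF and FGF. Compounds were applied in quadruplicate after a 1–2 h preincubation at 37 °C, 10 % CO2, with 0.1 % DMSO negative and 40 ng/ml T3 positive controls in eight wells. After fixation on DIV4, anti-MBP immunofluorescence images yielded MBP expression/cell.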

[2] = tested on: expanded OPCs; assay: cells; conditions: for viability at 0.1 µM / viability at 1 µM / viability at 10 µM: Rattus norvegicus, 72 h; for 0.1 µM (% DMSO) / 1 µM (% DMSO) / 10 µM (% DMSO): alamarBlue viability of expanded OPCs, relative to DMSO control; for 0.1 µM (% DMSO): compound at 0.1 µM; for 1 µM (% DMSO): compound at 1 µM; for 10 µM (% DMSO): compound at 10 µM
In short: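 Toxicity screen: compounds added at 0.1, 1 and 10 µM to PDGF-AA-expanded OPCs in 96-well plates, 3-day incubation at 37 °C, 10% CO2, then alamarBlue 1:10 for 4 h with fluorescence readout. Results set screening doses of 10/2, 2/0.4 or 0.4/0.08 µM.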

[3] = test compound at 0.4 uM, NCC library screen, relative to quetiapine, read-out: 0.4 uM (% Quet)
[4] = test compound at 2 uM, NCC library screen, relative to quetiapine, read-out: 2 uM (% Quet)
[5] = read-out: 0.1 µM (% DMSO), alamarBlue viability, NCC library compound at 0.1 µM, sheet "All Tox data"
[6] = read-out: 1 µM (% DMSO), alamarBlue viability, NCC library compound at 1 µM, sheet "All Tox data"
[7] = read-out: 10 µM (% DMSO), alamarBlue viability, NCC library compound at 10 µM, sheet "All Tox data"
[8] = 2 uM test compound, relative to quetiapine, read-out: OL differentiation, 2 uM (% Quet)
[9] = 10 uM test compound, relative to quetiapine, read-out: OL differentiation, 10 uM (% Quet)
[10] = test compound at 2 uM, MBP expression relative to quetiapine, NCC library screen, read-out: 2 uM (% Quet)
[11] = test compound at 10 uM, MBP expression relative to quetiapine, NCC library screen, read-out: 10 uM (% Quet)
[12] = read-out: 0.1 µM (% DMSO), alamarBlue viability of expanded OPCs, compound at 0.1 µM, sheet All Tox data
[13] = read-out: 1 µM (% DMSO), alamarBlue viability of expanded OPCs, compound at 1 µM, sheet All Tox data
[14] = read-out: 10 µM (% DMSO), alamarBlue viability of expanded OPCs, compound at 10 µM, sheet All Tox data
[15] = test compound at 10 uM, NCC library screen, relative to quetiapine, read-out: 10 uM (% Quet)
[16] = 0.4 uM test compound, relative to quetiapine, read-out: OL differentiation, 0.4 uM (% Quet)

| SMILES | activation at 2 µM [1, 4] | viability at 0.1 µM [2, 5] | viability at 1 µM [2, 6] | viability at 10 µM [2, 7] | activation at 2 µM [1, 8] | activation at 10 µM [1, 9] | viability at 0.1 µM [2, 12] | viability at 1 µM [2, 13] | viability at 10 µM [2, 14] | activation at 10 µM [1, 15] | also measured |
| --- | --- | --- | --- | --- | --- | --- | --- | --- | --- | --- | --- |
| C[C@]12Cc3c[nH]nc3C[C@@H]1CC[C@@H]1[C@@H]2CC[C@@]2(C)[C@H]1CC[C@]2(C)O [Stanozolol] | 42.2% | 91.1% | 92.6% | 61.7% |  |  |  |  |  |  | activation at 0.4 µM [1, 3]: 6.5% |
| Cc1cn([C@H]2C=C[C@@H](CO)O2)c(=O)[nH]c1=O [Stavudine] |  |  |  |  | -25.8% | -25% | 110% | 91.5% | 107% |  | activation at 2 µM [1, 10]: -21.6%; activation at 10 µM [1, 11]: -35.1%; 0.1 µM (% DMSO) [2]: 90.1 % DMSO; 1 µM (% DMSO) [2]: 97.1 % DMSO; 10 µM (% DMSO) [2]: 101.2 % DMSO |
| CC(C)(C)C(O)/C=C/c1ccc2c(c1)OCO2 (centres unmarked) [Stiripentol] | -12% | 85.4% | 89.5% | 83.7% |  |  |  |  |  | -14.2% |  |
| CC(=O)NS(=O)(=O)c1ccc(N)cc1 [Sulfacetamide] | 11.2% | 90.1% | 91.6% | 89.7% |  |  |  |  |  | 0.16% |  |
| O=C(O)c1cc(/N=N/c2ccc(S(=O)(=O)Nc3ccccn3)cc2)ccc1O [Sulfasalazine] |  |  |  |  | 15.1% | -0.6% | 89% | 89.8% | 94.9% |  |  |
| O=C1C(CC[S+]([O-])c2ccccc2)C(=O)N(c2ccccc2)N1c1ccccc1 (centres unmarked) [Sulfinpyrazone] | -3.8% | 88.8% | 92.9% | 88.2% |  |  |  |  |  | -6.8% |  |
| Cc1noc(NS(=O)(=O)c2ccc(N)cc2)c1C [Sulfisoxazole] | -3.5% | 93.5% | 99.1% | 103% |  |  |  |  |  | 7.6% |  |
| CC1=C(CC(=O)O)c2cc(F)ccc2/C1=C\c1ccc([S+](C)[O-])cc1 (centres unmarked) [Sulindac] | 0.6% |  |  |  |  |  |  |  |  | -11.2% | 0.1 µM (% DMSO) [2]: 90.8 % DMSO; 1 µM (% DMSO) [2]: 94.4 % DMSO; 10 µM (% DMSO) [2]: 90.3 % DMSO |
| CCN1CCCC1CNC(=O)c1cc(S(N)(=O)=O)ccc1OC (centres unmarked) [Sulpiride] |  |  |  |  | -9.7% | 6% | 105% | 116% | 115% |  |  |
| CCN1CCCC1CNC(=O)c1cc(S(=O)(=O)CC)ccc1OC (centres unmarked) [Sultopride] |  |  |  |  | 7.7% | 0% | 93.7% | 89.8% | 96.2% |  |  |
| CNS(=O)(=O)Cc1ccc2[nH]cc(CCN(C)C)c2c1 [Sumatriptan] |  | 95.1% | 98.2% | 92.1% | 69.1% | 84.6% |  |  |  |  |  |
| CNCC(O)c1ccc(O)cc1 (centres unmarked) [Synephrine] | -7.3% | 85.8% | 94.3% | 93.4% |  |  |  |  |  | 2.8% |  |
| Nc1c2c(nc3ccccc13)CCCC2 [Tacrine] |  |  |  |  | -10.2% | 2.8% | 80.5% | 80% | 77.8% |  |  |
| C=CC[C@@H]1/C=C(\C)C[C@H](C)C[C@H](OC)[C@H]2O[C@@](O)(C(=O)C(=O)N3CCCC[C@H]3C(=O)O[C@H](/C(C)=C/[C@@H]3CC[C@@H](O)[C@H](OC)C3)[C@H](C)[C@@H](O)CC1=O)[C@H](C)C[C@@H]2OC [Tacrolimus] |  |  |  |  | -39.9% | -53.9% | 94.6% | 102% | 109% |  |  |
| CN1CC(=O)N2[C@H](c3ccc4c(c3)OCO4)c3[nH]c4ccccc4c3C[C@@H]2C1=O [Tadalafil] |  |  |  |  | 21.4% | -16% | 99.2% | 93% | 93.9% |  |  |
| O=C1c2c(O)cc(O)cc2OC(c2ccc(O)c(O)c2)C1O (centres unmarked) [Taxifolin] |  |  |  |  | -1.7% | -59% | 96.4% | 93.7% | 88.7% |  |  |
| O=c1[nH]c(=O)n(C2CCCO2)cc1F (centres unmarked) [Tegafur] |  |  |  |  | -23.9% | -28% | 88.4% | 92.6% | 99.3% |  |  |
| [H]/N=C(/NCCCCC)N/N=C/c1c[nH]c2ccc(OC)cc12 [Tegaserod] |  | 88.5% | 33.1% | 11.5% |  |  |  |  |  |  | activation at 0.08 µM ([1]; 0.08 uM test compound, relative to quetiapine, read-out: OL differentiation, 0.08 uM (% Quet)): -15.2%; activation at 0.4 µM [1, 16]: -63.1% |
| CC[C@H]1OC(=O)[C@H](C)C(=O)[C@H](C)[C@@H](O[C@@H]2O[C@H](C)C[C@H](N(C)C)[C@H]2O)[C@](C)(OC)C[C@@H](C)C(=O)[C@H](C)[C@H]2N(CCCCn3cnc(-c4cccnc4)c3)C(=O)O[C@]12C [Telithromycin] | 17.7% | 98.4% | 105% | 94% |  |  |  |  |  | 10.4% |  |
| CCCc1nc2c(C)cc(-c3nc4ccccc4n3C)cc2n1Cc1ccc(-c2ccccc2C(=O)O)cc1 [Telmisartan] | -6.1% | 95.6% | 82.3% | 53.3% |  |  |  |  |  | -61.8% |  |
| Cn1nnc2c(C(N)=O)ncn2c1=O [Temozolomide] |  |  |  |  | -10.2% | -8.5% | 105% | 94.7% | 100% |  |  |
| COc1cc2nc(N3CCN(C(=O)C4CCCO4)CC3)nc(N)c2cc1OC (centres unmarked) [Terazosin] |  |  |  |  | -2.4% | 8.7% | 81.1% | 80.8% | 78.7% |  | activation at 2 µM [1, 10]: -10.8%; activation at 10 µM [1, 11]: -37.2%; 0.1 µM (% DMSO) [2]: 93.3 % DMSO; 1 µM (% DMSO) [2]: 94.6 % DMSO; 10 µM (% DMSO) [2]: 74.1 % DMSO |
| CN(C/C=C/C#CC(C)(C)C)Cc1cccc2ccccc12 [Terbinafine] |  | 90.5% | 92.2% | 11% | -91.1% |  |  |  |  |  | activation at 0.4 µM [1, 16]: -31.1% |
| CC(C)(C)NCC(O)c1cc(O)cc(O)c1 (centres unmarked) [Terbutaline] |  |  |  |  |  |  |  |  |  |  | activation at 2 µM [1, 10]: 8.9%; activation at 10 µM [1, 11]: 12.1%; 0.1 µM (% DMSO) [2]: 91.9 % DMSO; 1 µM (% DMSO) [2]: 95.2 % DMSO; 10 µM (% DMSO) [2]: 89.9 % DMSO |
| O=C1CCC(N2C(=O)c3ccccc3C2=O)C(=O)N1 (centres unmarked) [Thalidomide] | -9.1% | 110% | 92.4% | 99.3% |  |  |  |  |  | -26.7% |  |
| Cn1c(=O)c2[nH]cnc2n(C)c1=O [Theophylline] | -12% |  |  |  |  |  |  |  |  | 6.9% | 0.1 µM (% DMSO) [2]: 91.7 % DMSO; 1 µM (% DMSO) [2]: 95.8 % DMSO; 10 µM (% DMSO) [2]: 88.9 % DMSO |
| c1ccc2[nH]c(-c3cscn3)nc2c1 [Thiabendazole] | 14.9% | 98% | 97.1% | 109% |  |  |  |  |  | 36.7% |  |
| CSc1ccc2c(c1)N(CCC1CCCCN1C)c1ccccc1S2 (centres unmarked) [Thioridazine] |  | 53.8% | 24.4% | 9.4% |  |  |  |  |  |  | activation at 0.08 µM ([1]; test compound at 0.08 uM, NCC library screen, relative to quetiapine, read-out: 0.08 uM (% Quet)): -4.7%; activation at 0.4 µM [1, 3]: -158% |
| CN1CCN(CC/C=C2/c3ccccc3Sc3ccc(S(=O)(=O)N(C)C)cc32)CC1 [Thiothixene] |  |  |  |  |  |  |  |  |  |  | activation at 0.08 µM ([1]; test compound at 0.08 uM, MBP expression relative to quetiapine, NCC library screen, read-out: 0.08 uM (% Quet)): 45.9%; activation at 0.4 µM ([1]; test compound at 0.4 uM, MBP expression relative to quetiapine, NCC library screen, read-out: 0.4 uM (% Quet)): 24%; 0.1 µM (% DMSO) [2]: 81.2 % DMSO; 1 µM (% DMSO) [2]: 49.9 % DMSO; 10 µM (% DMSO) [2]: 16.9 % DMSO |
